This test has as its system HCV replicon in ET (Huh-lucubineo-ET) cell line (screening for HCV RNA dependent RNA polymerase). The test is described as follows: Replicon Assay (luciferase reporter, ET cell line). It is filed as cell-based. To be noted: Hepatitis C virus; tested at 12.5 μM; luciferase activity in ET replicon cells, relative to no compound control; read-out: % inhibition (of replication). The protocol:
A cell line, ET (Huh-lucubineo-ET) was used for screening of compounds of the present invention for HCV RNA dependent RNA polymerase. The ET cell line was stably transfected with RNA transcripts harboring a I389luc-ubi-neo/NS3-3′/ET; replicon with firefly luciferase-ubiquitin-neomycin phosphotransferase fusion protein and EMCV-IRES driven NS3-5B polyprotein containing the cell culture adaptive mutations (E1202G; T1280I; K1846T) (Krieger at al, 2001 and unpublished). The ET cells were grown in DMEM, supplemented with 10% fetal calf serum, 2 mM Glutamine, Penicillin (100 IU/mL)/Streptomycin (100 μg/mL), 1× nonessential amino acids, and 250 μg/mL G418 (“Geneticin”). They were all available through Life Technologies (Bethesda, Md.). The cells were plated at 0.5-1.0×10^4 cells/well in the 96 well plates and incubated for 24 hrs before adding nucleoside analogs. […] Luciferase activity was measured 48-72 hours later by adding a lysis buffer and the substrate (Catalog number Glo-lysis buffer E2661 and Bright-Glo leuciferase system E2620 Promega, Madison, Wis.). Cells should not be too confluent during the assay. Percent inhibition of replication was plotted relative to no compound control. Under the same condition, cytotoxicity of the compounds was determined using cell proliferation reagent, WST-1 (Roche, Germany). The compounds showing potent antiviral activities, but no significant cytotoxicities were chosen for further evaluation. For these determinations, a 10-point, 2-fold serial dilution for each compound was used which spans a concentration range of 1000 fold. IC50 and TC50 values were calculated by fitting % inhibition at each concentration to the following equation: % inhibition=100%/[(IC50/[I])b+1] where b is Hill's coefficient.
The % inhibition at a particular concentration was determined using the following equation: % Inhibition=100−[100*(Lum with inhibitor-bg)/(Lum with no inhibitor-bg)]
where bg was the background with no replicon cell, and Lum was the luminescence intensity of the reporter luciferase gene.
On the technique in general: A replicon is a self-replicating genome or part of one, used to study replication in cells.
In general, inhibition refers to the percentage by which the read-out fell short of the control. In the case of `Cc1nc(C)c(-c2ccc3cc(-c4c(C5CCCCC5)cc(C(=O)O)cc4[N+](=O)[O-])ccc3n2)s1` [Compound 7, 3-cyclohexyl-4-[2-(2,4-dimethyl-thiazol-5-yl)-quinolin-6-yl]-5-nitro-benzoic acid], the inhibition at 12.5 µM amounted to 30%.

For `COc1ccc(-c2ccc(Cl)cc2)c(-c2ccc3cc(-c4ccc(C(=O)O)cc4C4CCCCC4)ccc3n2)c1` [Compound 1.8a, 3-cyclohexyl-4-(2-(3-methoxy-6-(4′-chlorophenyl)phenyl)quinolin-6-yl)benzoic acid], the inhibition at 12.5 µM was 89%.

For the molecule `Cc1nc(C)c(-c2ccc3cc(-c4c(/C=C/C(=O)N5CCCCC5)cc(C(=O)O)cc4C4CCCCC4)ccc3n2)s1` [Compound 2.9b, 3-cyclohexyl-4-(2-(2,4-dimethylthiazol-5-yl)quinolin-6-yl)-5-((E)-3-oxo-3-(piperidin-1-yl)prop-1-enyl)benzoic acid], the inhibition at 12.5 µM worked out at 80%.

As for `COCCOc1ccc(-c2ccc(Cl)cc2)c(-c2ccc3cc(-c4ccc(C(=O)O)cc4C4CCCCC4)ccc3n2)c1` [Compound 1.8b, 3-cyclohexyl-4-(2-(3-(2-methoxyethoxy)-6-(4′-chlorophenyl)phenyl)quinolin-6-yl)benzoic acid], the inhibition at 12.5 µM is 94%.

For the molecule `Cc1nc(C)c(-c2ccc3cc(-c4c(CC(=O)N5CCOCC5)cc(C(=O)NC5(C(=O)O)CCCC5)cc4C4CCCCC4)ccc3n2)s1` [Compound 10, 1-[3-cyclohexyl-4-[2-(2,4-dimethyl-thiazol-5-yl)-quinolin-6-yl]-5-(2-morpholin-4-yl-2-oxo-ethyl)-benzoylamino]-cyclopentanecarboxylic acid], the inhibition at 12.5 µM worked out at 51%.

`Cc1nc(C)c(-c2ccc3cc(-c4c(N)cc(C(=O)O)cc4C4CCCCC4)ccc3n2)s1` [Compound 8, 3-amino-5-cyclohexyl-4-[2-(2,4-dimethyl-thiazol-5-yl)-quinolin-6-yl]-benzoic acid]: the inhibition at 12.5 µM was 54%.

With `C#Cc1cc(C(=O)O)cc(C2CCCCC2)c1-c1ccc2nc(-c3sc(C)nc3C)ccc2c1` [Compound 4.4b, 3-cyclohexyl-5-ethynyl-4-(2-(2,4-dimethylthiazol-5-yl)quinolin-6-yl)benzoic acid], the inhibition at 12.5 µM was 87%.

Turning to `Cc1nc(C)c(-c2ccc3cc(-c4c(CC(=O)N5CCOCC5)cc(C(=O)O)cc4C4CCCCC4)ccc3n2)s1` [Compound 9, 3-cyclohexyl-4-[2-(2,4-dimethyl-thiazol-5-yl)-quinolin-6-yl]-5-(2-morpholin-4-yl-2-oxo-ethyl)-benzoic acid], the inhibition at 12.5 µM was found to be 6.4%.

For `Cc1nc(C)c(-c2ccc3cc(-c4c(CC(=O)N5CCOCC5)cc(-c5nnn[nH]5)cc4C4CCCCC4)ccc3n2)s1` [Compound 11, 2-[3-cyclohexyl-2-[2-(2,4-dimethyl-thiazol-5-yl)-quinolin-6-yl]-5-(1H-tetrazol-5-yl)-phenyl]-1-morpholin-4-yl-ethanone], the inhibition at 12.5 µM is 27%.

Turning to `Cc1nc(C)c(-c2ccc3cc(-c4c(/C=C/C(=O)N5CCOCC5)cc(C(=O)O)cc4C4CCCCC4)ccc3n2)s1` [Compound 2.9a, 3-cyclohexyl-4-(2-(2,4-dimethylthiazol-5-yl)quinolin-6-yl)-5-((E)-3-morpholino-3-oxoprop-1-enyl)benzoic acid], the inhibition at 12.5 µM is 65%.

The record behind these values is patent US20070032488A1, “6-Membered aryl and heteroaryl derivatives for treating viruses” (Genelabs Technologies, Inc., priority 2005, published 2007).
